Assay results published in patent US7807841B2, “Spiro-containing compounds and compositions as modulators of steroid hormone nuclear receptors” (IRM LLC, priority 2005, dated 2010).

Key:
Androgen Receptor (AR) = molecular target: T1, Androgen Receptor (AR) (Homo sapiens, UniProt P10275); assay: Functional assay of androgen receptor antagonism (MMTV luciferase reporter in MDA-kb2 cells); type: cell-based; settings: antagonism of dihydrotestosterone (0.3 nM)-induced AR activity
T1 sequence (P10275 1-920 Q868H): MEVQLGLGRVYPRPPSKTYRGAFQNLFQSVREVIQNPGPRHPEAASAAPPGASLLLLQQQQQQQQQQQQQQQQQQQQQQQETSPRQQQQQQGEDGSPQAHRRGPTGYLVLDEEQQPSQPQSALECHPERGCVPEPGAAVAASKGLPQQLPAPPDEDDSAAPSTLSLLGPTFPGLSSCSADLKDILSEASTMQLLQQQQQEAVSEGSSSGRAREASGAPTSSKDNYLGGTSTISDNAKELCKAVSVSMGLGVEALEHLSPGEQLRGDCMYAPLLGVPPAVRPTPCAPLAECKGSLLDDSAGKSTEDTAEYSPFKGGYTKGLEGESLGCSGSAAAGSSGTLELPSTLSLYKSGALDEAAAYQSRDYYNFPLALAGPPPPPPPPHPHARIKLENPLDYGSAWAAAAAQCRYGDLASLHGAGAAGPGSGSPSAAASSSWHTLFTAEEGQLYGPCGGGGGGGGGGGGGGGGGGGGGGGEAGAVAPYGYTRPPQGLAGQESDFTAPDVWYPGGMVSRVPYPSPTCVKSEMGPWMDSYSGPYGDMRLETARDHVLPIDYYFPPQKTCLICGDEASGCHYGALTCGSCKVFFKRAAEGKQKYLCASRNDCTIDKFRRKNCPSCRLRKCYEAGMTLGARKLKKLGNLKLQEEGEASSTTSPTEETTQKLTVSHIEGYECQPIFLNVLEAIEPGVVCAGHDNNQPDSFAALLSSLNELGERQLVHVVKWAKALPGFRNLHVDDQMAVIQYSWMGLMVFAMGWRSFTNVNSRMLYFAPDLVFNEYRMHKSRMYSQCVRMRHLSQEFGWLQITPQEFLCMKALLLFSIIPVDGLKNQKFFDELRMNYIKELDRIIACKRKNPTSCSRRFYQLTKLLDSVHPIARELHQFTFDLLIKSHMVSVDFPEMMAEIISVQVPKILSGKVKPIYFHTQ
Method: The AR antagonist activity of the compounds is determined with the MDA-Kb2 cell line (ATCC), which stably expresses the MMTV luciferase reporter. The MMTV promoter is a mouse mammary tumor virus promoter that contains androgen receptor response elements. […] Upon stimulation with AR ligands, such as dihydrotestosterone, the MMTV luciferase reporter can be activated.
The assay is performed in 384 well plates. Briefly, MDA-kb2 cells are plated in 384 well plates at a density of approximately 2.4×10^4 cells/well in 50 μl medium. The medium is supplemented with 5% charcoal-dextran treated fetal bovine serum (Hyclone). Twenty four hours later, compounds prepared in DMSO are transferred to the cells. The cells are then stimulated with 0.3 nM final concentration of dihydrotestosterone (Sigma) and incubated at 37° C. for another 24 hours before the luciferase activity is assayed with 20 μl of Bright-Glo (Promega) using a luminometer (CLIPR). The expression of luciferase is used as an indicator of dihydrotestosterone-induced AR trans-activation. Each compound is tested in duplicates with a 12-concentration titration. IC50 values (defined as the concentration of test compound required to antagonize 50% of dihydrotestosterone-induced AR activity) are determined from the dose-response curve.

[1] = molecular target: T2, Progesterone Receptor (PR) (Homo sapiens, UniProt P06401); assay: Functional assay of progesterone receptor antagonism (progesterone-induced alkaline phosphatase activity in T-47D cells); type: cell-based; settings: antagonism of progesterone (3 nM)-induced PR activity, read-out: PR-T47D IC50
T2 sequence (P06401 679-933 limits assumed): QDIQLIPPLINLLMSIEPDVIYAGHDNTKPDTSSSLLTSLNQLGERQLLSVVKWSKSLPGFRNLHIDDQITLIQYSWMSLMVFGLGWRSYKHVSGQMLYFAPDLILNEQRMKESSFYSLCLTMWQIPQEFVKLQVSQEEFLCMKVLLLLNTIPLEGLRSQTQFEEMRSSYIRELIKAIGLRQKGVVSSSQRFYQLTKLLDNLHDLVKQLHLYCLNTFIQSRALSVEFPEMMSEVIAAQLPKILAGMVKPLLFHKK
Method: The PR antagonist activity of the compounds is determined by progesterone-induced alkaline phosphatase activity in the T-47D cell line (ATCC). In the T-47D breast cancer cells, progesterone specifically induces de novo synthesis of a membrane-associated alkaline phosphatase enzyme in a time and dose-dependent manner (Di Lorenzo et al., Cancer Research, 51: 4470-4475 (1991)). The alkaline phosphatase enzymatic activity can be measured with a chemiluminescent substrate, such as CSPD® (Applied Biosystems).
The assay is performed in 384 well plates. Briefly, T-47D cells are plated in 384 well plates at a density of approximately 2.5×10^4 cells/well in 50 μl medium supplemented with 10% fetal bovine serum. Twenty four hours later, the medium is aspirated. New medium that is free of phenol red and serum is added to the cells. Compounds prepared in DMSO are transferred to the cells. The cells are then stimulated with 3 nM final concentration of progesterone (Sigma) and incubated at 37° C. for another 24 hours before the alkaline phosphatase is assayed with 25 μl of CSPD® (Applied Biosystems) using a luminometer (CLIPR). The expression of alkaline phosphatase is used as an indicator of progesterone-induced PR trans-activation. Each compound is tested in duplicates with a 12-concentration titration. IC50 values (defined as the concentration of test compound required to antagonize 50% of progesterone-induced PR activity) are determined from the dose-response curve.

SMILES	IC50 (Androgen Receptor (AR))	IC50 [1]
CC12CCC(=O)N1CC1(O2)c2ccccc2C=Cc2ccccc21 (single isomer, unassigned) [FRS-1 (Chiral Synthesis)]	0.1 to 1 µM	> 10 µM
O=C1CCCC2(C(F)(F)F)OC3(CN12)c1ccccc1C=Cc1ccccc13 (centres unmarked) [FRS-11]	0.1 to 1 µM	> 10 µM
CC12CCC(=O)N1CC1(O2)c2ccccc2C=Cc2ccccc21 (centres unmarked) [FRS-1]	0.1 to 1 µM	> 10 µM
O=C1CCC2(c3cccs3)OC3(CN12)c1ccccc1C=Cc1ccccc13 (centres unmarked) [FRS-8]	0.1 to 1 µM	1 to 10 µM
COc1ccc(C23CCC(=O)N2CC2(O3)c3ccccc3C=Cc3ccccc32)cc1 (centres unmarked) [FRS-5]	> 10 µM	> 10 µM
CC12CCC(=O)N1CC1(O2)c2ccccc2CCc2ccccc21 (centres unmarked) [FRS-13]	0.1 to 1 µM	> 10 µM
CC12CCC(=O)N1CC1(O2)c2ccccc2CCc2ccccc21 (single isomer, unassigned) [FRS-13 (Chiral Synthesis)]	0.1 to 1 µM	> 10 µM
O=C1CCC2(c3ccccc3)OC3(CN12)c1ccccc1C=Cc1ccccc13 (centres unmarked) [FRS-2]	0.1 to 1 µM	> 10 µM
O=C1CCC2(C3CC3)OC3(CN12)c1ccccc1C=Cc1ccccc13 (centres unmarked) [FRS-10]	0.1 to 1 µM	> 10 µM
CC12CCCCC(=O)N1CC1(O2)c2ccccc2C=Cc2ccccc21 (centres unmarked) [FRS-6]	1 to 10 µM	> 10 µM
CC12CCCC(=O)N1CC1(O2)c2ccccc2C=Cc2ccccc21 (centres unmarked) [FRS-4]	> 10 µM	1 to 10 µM
CCCC12CCC(=O)N1CC1(O2)c2ccccc2C=Cc2ccccc21 (centres unmarked) [FRS-9]	0.1 to 1 µM	1 to 10 µM
CC12CCCC(=O)N1CC1(O2)c2ccccc2CCc2ccccc21 (centres unmarked) [FRS-14]	1 to 10 µM	1 to 10 µM
O=C1CCC2(c3ccc(F)cc3)OC3(CN12)c1ccccc1C=Cc1ccccc13 (centres unmarked) [FRS-3]	1 to 10 µM	> 10 µM

Next, values leading:

IC50 (Androgen Receptor (AR))	IC50 [1]	SMILES
1 to 10 µM	0.1 to 1 µM	CC1(C)OC2(CN1S(C)(=O)=O)c1ccccc1C=Cc1ccccc12 [SOXS-4]
1 to 10 µM	0.1 to 1 µM	CC(=O)N1CC2(OC13CCCCC3)c1ccccc1C=Cc1ccccc12 [SOXS-6]
> 10 µM	1 to 10 µM	CC1(C)OC2(CN1C(=O)Nc1ccc(F)cc1F)c1ccccc1C=Cc1ccccc12 [SOXS-1]
1 to 10 µM	1 to 10 µM	CC(=O)N1CC2(OC1(C)C)c1ccccc1C=Cc1ccccc12 [SOXS-3]
1 to 10 µM	> 10 µM	Oc1ccc(C2=NCC3(O2)c2ccccc2C=Cc2ccccc23)cc1 [OXS-1]
